Values quoted from earlier work, collected in US20220370511A1, “METHODS AND COMPOSITIONS FOR ENHANCING OVERALL HEALTH AND LONGEVITY IN MAMMALS” (MYOS CORP., priority 2019, published 2022).

Key:
[1] = chronic supplementation, healthy middle-aged and older adults
NAD+ metabolism = conditions: chronic supplementation, healthy middle-aged and older adults
[2] = dose of 300 mg/kg/day

NC(=O)c1ccc[n+]([C@@H]2O[C@H](CO)[C@@H](O)[C@H]2O)c1 [nicotinamide riboside]
tolerability [1]: well tolerated | stimulation of NAD+ metabolism (NAD+ metabolism): effectively stimulated | adverse effects related to nicotinamide riboside [2]: absent
